Molecules are shown by their SMILES. Where “and” joins values, the source holds several entries; their conditions need not be identical. Identical values can stand only once. Inconclusive results and toxic doses are left out.

For the test, the system named is CD2F1 mice, L1210 leukemia ip, survival T/C. In words: NCI In Vivo Anticancer Drug Screen. Data for tumor model L1210 Leukemia (intraperitoneal) in CD2F1 (CDF1) mice. The note with it: higher = longer survival. In a few lines: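 Mice carrying a transplanted tumor received test compound or vehicle alone. The value is the measurement in the treated group divided by that in the vehicle-treated control group.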

The mark [1] stands for this setting: endpoint: mean survival time, dose: 100.0 mg/kg/injection, schedule: Q04DX003 (ip), vehicle: saline with Tween-80.
Where [2] appears, read: endpoint: mean survival time, dose: 200.0 mg/kg/injection, schedule: Q04DX003 (ip), vehicle: saline with Tween-80.
The mark [3] stands for this setting: endpoint: mean survival time, dose: 400.0 mg/kg/injection, schedule: Q04DX003 (ip), vehicle: saline with Tween-80.
Where [4] appears, read: endpoint: mean survival time, dose: 100.0 mg/kg/injection, schedule: Q01DX009 (ip), vehicle: saline with Tween-80.
The mark [5] stands for this setting: endpoint: mean survival time, dose: 200.0 mg/kg/injection, schedule: Q01DX009 (ip), vehicle: saline with Tween-80.
Where [6] appears, read: endpoint: mean survival time, dose: 400.0 mg/kg/injection, schedule: Q01DX009 (ip), vehicle: saline with Tween-80.
[7] abbreviates: endpoint: mean survival time, dose: 50.0 mg/kg/injection, schedule: Q01DX009 (ip), vehicle: saline with Tween-80.
Where [8] appears, read: endpoint: mean survival time, dose: 100.0 mg/kg/injection, schedule: Q01DX001 (ip), vehicle: saline.
[9] abbreviates: endpoint: mean survival time, dose: 50.0 mg/kg/injection, schedule: Q04DX003 (ip), vehicle: saline with Tween-80.
The mark [10] stands for this setting: endpoint: mean survival time, dose: 100.0 mg/kg/injection, schedule: Q01DX001 (ip), vehicle: saline with Tween-80.
[11] abbreviates: endpoint: mean survival time, dose: 200.0 mg/kg/injection, schedule: Q01DX001 (ip), vehicle: saline with Tween-80.
The mark [12] stands for this setting: endpoint: mean survival time, dose: 400.0 mg/kg/injection, schedule: Q01DX001 (ip), vehicle: saline with Tween-80.

`CCCCC#CC(C)C`: the T/C by setting is: under setting [1], 98 % of control; under setting [2], 102 % of control; under setting [3], 102 % of control.

Consider `O=C(O)c1ccccc1N=Cc1ccccc1O`, for which the T/C under setting [4] was 96 % of control; the T/C under setting [1] was 103 % of control; the T/C under setting [5] was 96 % of control; the T/C under setting [2] is 113 % of control; the T/C under setting [6] was 102 % of control; the T/C under setting [3] was 105 % of control.

In the case of `CCOC(=O)/C=C/C1CCCCC1`, the T/C is, setting by setting: under setting [7], 96 % of control; under setting [4], 104 % of control; under setting [5], 96 % of control.

For `CC(C)C(C(O)c1ccccc1)[N+](=O)[O-]` (configuration not stated), the T/C was 102 % of control (endpoint: mean survival time, dose: 100.0 mg/kg/injection, schedule: Q01DX009 (ip), vehicle: saline sonified); 102 % of control under setting [1]; 102 % of control (endpoint: mean survival time, dose: 200.0 mg/kg/injection, schedule: Q01DX009 (ip), vehicle: saline sonified); 96 % of control under setting [2]; 100 % of control (endpoint: mean survival time, dose: 400.0 mg/kg/injection, schedule: Q01DX009 (ip), vehicle: saline sonified); 100 % of control under setting [3].

Turning to `CCOC(=O)Nc1ccc2nnn(C3OC(CO)C(O)C3O)c2n1` (configuration not stated), the T/C reads like this: (endpoint: mean survival time, dose: 12.5 mg/kg/injection, schedule: Q01DX005 (ip), vehicle: water) 94 % of control; (endpoint: mean survival time, dose: 25.0 mg/kg/injection, schedule: Q01DX005 (ip), vehicle: water) 102 % of control; (endpoint: mean survival time, dose: 50.0 mg/kg/injection, schedule: Q01DX005 (ip), vehicle: water) 98 % of control; (endpoint: mean survival time, dose: 100.0 mg/kg/injection, schedule: Q01DX005 (ip), vehicle: water) 102 % of control; (endpoint: mean survival time, dose: 200.0 mg/kg/injection, schedule: Q01DX005 (ip), vehicle: water) 94 % of control; (endpoint: mean survival time, dose: 400.0 mg/kg/injection, schedule: Q01DX005 (ip), vehicle: water) 94 % of control.

For the molecule `CCN(CC)c1ccc(-c2nc3ccccc3s2)cc1`, the T/C runs as follows: (endpoint: mean survival time, dose: 50.0 mg/kg/injection, schedule: Q01DX009 (ip), vehicle: Klucel (hydroxypropylcellulose) (HPC)) 106 % of control; (endpoint: mean survival time, dose: 100.0 mg/kg/injection, schedule: Q01DX009 (ip), vehicle: Klucel (hydroxypropylcellulose) (HPC)) 98 % of control; (endpoint: mean survival time, dose: 200.0 mg/kg/injection, schedule: Q01DX009 (ip), vehicle: Klucel (hydroxypropylcellulose) (HPC)) 102 % of control.

With `COc1ccc(NC2=C(C)C(=O)C3=C(C2=O)[C@H](COC(N)=O)[C@]2(OC)[C@@H]4N[C@@H]4CN32)cc1OC`, the T/C (endpoint: median survival time, dose: 3.0 mg/kg/injection, schedule: Q01DX001 (ip), vehicle: water) was 124 % of control and 111 % of control; the T/C (endpoint: median survival time, dose: 6.0 mg/kg/injection, schedule: Q01DX001 (ip), vehicle: water) is 124 % of control; the T/C (endpoint: median survival time, dose: 24.0 mg/kg/injection, schedule: Q01DX001 (ip), vehicle: water) was 110 % of control.

Take `COc1ccc(CNC(C)(C#N)c2ccccc2)cc1OC` (configuration not stated): the T/C reads like this: under setting [1], 107 % of control; under setting [2], 93 % of control; under setting [3], 98 % of control.

Consider `CC1CN1CCCNC(=O)C(=O)NCCCN1CC1C` (configuration not stated), for which the T/C under setting [8] is 182 % of control.

Take `O=C1CCC2(CC1C1C=CCC1)OCCO2` (configuration not stated): the T/C under setting [4] is 91 % of control; the T/C under setting [1] was 100 % of control; the T/C under setting [5] was 94 % of control; the T/C under setting [2] was 102 % of control; the T/C under setting [6] was 100 % of control; the T/C under setting [3] is 98 % of control.

On to `O=S(=O)(O)c1ccc(N=Nc2ccc(O)cc2)cc1`, for which the T/C (endpoint: mean survival time, dose: 25.0 mg/kg/injection, schedule: Q04DX003 (ip), vehicle: saline with Tween-80) was 97 % of control; the T/C under setting [9] was 107 % of control; the T/C under setting [1] was 100 % of control.

Regarding `O=C(CBr)CC(=O)Nc1ccccc1`, the T/C is 101 % of control under setting [9] and 88 % of control under setting [1].

Consider `CCCCCC(C)C(C)=O` (configuration not stated), for which the T/C was 101 % of control under setting [4], 106 % of control under setting [5] and 92 % of control under setting [6].

For the molecule `CCOC(=O)CCCCSCCCCC(=O)OCC`, the T/C under setting [10] is 100 % of control, the T/C under setting [11] was 105 % of control and the T/C under setting [12] was 101 % of control.

Turning to `CC[N+]1(C)C2CCC1CC(O)C2` (configuration not stated), the T/C reads like this: (endpoint: mean survival time, dose: 100.0 mg/kg/injection, schedule: Q04DX002 (ip), vehicle: saline) 105 % of control; (endpoint: mean survival time, dose: 200.0 mg/kg/injection, schedule: Q04DX002 (ip), vehicle: saline) 102 % of control.

As to `C/C=C/C=C/c1cc2cc3c(c(O)c2c(=O)[nH]1)C1(CC3)C(O)=c2c(=O)c3c(=O)cc(OC)c(=O)c=3c(=O)c2=C1O` (configuration not stated), the T/C is 90 % of control and 93 % of control and 108 % of control (endpoint: mean survival time, dose: 0.06 mg/kg/injection, schedule: Q01DX009 (ip), vehicle: DMSO); 97 % of control (endpoint: mean survival time, dose: 0.06 mg/kg/injection, schedule: Q01DX009 (ip), vehicle: Klucel (hydroxypropylcellulose) (HPC)); 113 % of control and 107 % of control (endpoint: mean survival time, dose: 0.12 mg/kg/injection, schedule: Q01DX009 (ip), vehicle: DMSO); 98 % of control (endpoint: mean survival time, dose: 0.12 mg/kg/injection, schedule: Q01DX009 (ip), vehicle: Klucel (hydroxypropylcellulose) (HPC)); 118 % of control (endpoint: mean survival time, dose: 0.25 mg/kg/injection, schedule: Q01DX009 (ip), vehicle: DMSO); 98 % of control (endpoint: mean survival time, dose: 0.25 mg/kg/injection, schedule: Q01DX009 (ip), vehicle: Klucel (hydroxypropylcellulose) (HPC)). The T/C is 94 % of control (endpoint: mean survival time, dose: 0.5 mg/kg/injection, schedule: Q01DX009 (ip), vehicle: DMSO); 98 % of control (endpoint: mean survival time, dose: 0.5 mg/kg/injection, schedule: Q01DX009 (ip), vehicle: Klucel (hydroxypropylcellulose) (HPC)); 98 % of control (endpoint: mean survival time, dose: 1.0 mg/kg/injection, schedule: Q01DX009 (ip), vehicle: Klucel (hydroxypropylcellulose) (HPC)); 104 % of control (endpoint: mean survival time, dose: 2.0 mg/kg/injection, schedule: Q01DX009 (ip), vehicle: Klucel (hydroxypropylcellulose) (HPC)); 89 % of control (endpoint: median survival time, dose: 0.03 mg/kg/injection, schedule: Q01DX009 (ip), vehicle: DMSO).

`O=S1(=O)CC2(C1)CS(=O)(=O)C2`: the T/C is, setting by setting: under setting [10], 103 % of control; under setting [11], 90 % of control.

For the molecule `Cc1ccc(NC(=O)Oc2ccccc2F)cc1C`, the T/C is 100 % of control under setting [7], 87 % of control under setting [4] and 104 % of control under setting [5].

On to `CCOc1cccc(Cc2cn(Cc3cccc(NC(=O)Nc4ccc(S(=O)(=O)F)cc4)c3)c(=O)[nH]c2=O)c1`, for which the T/C under setting [10] was 86 % of control, the T/C under setting [11] was 92 % of control and the T/C under setting [12] is 86 % of control.

Take `C/C=C(\C)c1cc(=O)c2c(C)cc3c(c2o1)C(=O)c1c(O)c(C2CC(C)(N(C)C)C(OC(C)=O)C(C)O2)cc(C2CC(N(C)C)C(O)C(C)O2)c1C3=O` (configuration not stated): the T/C is, setting by setting: (endpoint: mean survival time, dose: 0.15 mg/kg/injection, schedule: Q01DX009 (ip), vehicle: saline) 103 % of control; (endpoint: mean survival time, dose: 0.31 mg/kg/injection, schedule: Q01DX009 (ip), vehicle: saline) 98 % of control; (endpoint: mean survival time, dose: 0.62 mg/kg/injection, schedule: Q01DX009 (ip), vehicle: saline) 115 % of control and 100 % of control; (endpoint: mean survival time, dose: 1.25 mg/kg/injection, schedule: Q01DX009 (ip), vehicle: saline) 106 % of control and 111 % of control; (endpoint: mean survival time, dose: 2.5 mg/kg/injection, schedule: Q01DX009 (ip), vehicle: saline) 105 % of control and 108 % of control; (endpoint: mean survival time, dose: 5.0 mg/kg/injection, schedule: Q01DX009 (ip), vehicle: saline) 115 % of control.

For the molecule `Cc1nn(-c2ccccc2)c2[nH]cnc(=S)c12`, the T/C is, setting by setting: (endpoint: mean survival time, dose: 12.5 mg/kg/injection, schedule: Q01DX005 (ip), vehicle: other) 86 % of control; (endpoint: mean survival time, dose: 25.0 mg/kg/injection, schedule: Q01DX005 (ip), vehicle: other) 91 % of control; (endpoint: mean survival time, dose: 50.0 mg/kg/injection, schedule: Q01DX005 (ip), vehicle: other) 92 % of control; (endpoint: mean survival time, dose: 100.0 mg/kg/injection, schedule: Q01DX005 (ip), vehicle: other) 97 % of control; (endpoint: mean survival time, dose: 200.0 mg/kg/injection, schedule: Q01DX005 (ip), vehicle: other) 93 % of control.

Consider `CN1CCCC1CCNc1nc(Nc2ccc(Cl)c(Cl)c2)nc2ccc(Cl)cc12` (configuration not stated), for which the T/C (endpoint: mean survival time, dose: 25.0 mg/kg/injection, schedule: Q01DX009 (ip), vehicle: saline with Tween-80) is 97 % of control and the T/C under setting [10] is 103 % of control.

Consider `C=NNC(=O)c1ccncc1`, for which the T/C was 100 % of control under setting [4], 101 % of control under setting [5] and 95 % of control under setting [6].

For the molecule `Nc1ncnc2nc(-c3cccc(CNC(=O)c4ccccc4S(=O)(=O)F)c3)[nH]c12`, the T/C by setting is: under setting [10], 87 % of control; under setting [12], 87 % of control.

On to `O=C(O)c1c[nH]c2c(Cl)cccc2c1=O`, for which the T/C runs as follows: under setting [8], 102 % of control; (endpoint: mean survival time, dose: 200.0 mg/kg/injection, schedule: Q01DX001 (ip), vehicle: saline) 100 % of control.
